Assay results published in patent US11192867B2, “Microbiocidal oxadiazole derivatives” (SYNGENTA PARTICIPATIONS AG, priority 2016, dated 2021).

What was measured:
[1] = system: Puccinia recondita f. sp. Tritici; assay: Fungicidal activity against Puccinia recondita f. sp. Tritici / wheat / leaf disc preventative (brown rust); type: in vivo; conditions: foliar, 200 ppm in the applied formulation, wheat leaf segments cv. Kanzler, inoculated 1 day after application, vs untreated control, read-out: disease control
Method: Leaf disks or leaf segments of various plant species are cut from plants grown in a greenhouse. The cut leaf disks or segments are placed in multiwell plates (24-well format) onto water agar. The leaf disks are sprayed with a test solution before (preventative) or after (curative) inoculation. Compounds to be tested are prepared as DMSO solutions (max. 10 mg/ml) which are diluted to the appropriate concentration with 0.025% Tween20 just before spraying. The inoculated leaf disks or segments are incubated under defined conditions (temperature, relative humidity, light, etc.) according to the respective test system. A single evaluation of disease level is carried out 3 to 14 days after inoculation, depending on the pathosystem. Percent disease control relative to the untreated check leaf disks or segments is then calculated. Wheat leaf segments cv. Kanzler were placed on agar in multiwell plates (24-well format) and sprayed with the formulated test compound diluted in water. The leaf disks were inoculated with a spore suspension of the fungus 1 day after application. The inoculated leaf segments were incubated at 19° C. and 75% relative humidity (rh) under a light regime of 12 hours light/12 hours darkness in a climate cabinet and the activity of a compound was assessed as percent disease control compared to untreated when an appropriate level of disease damage appears in untreated check leaf segments (7 to 9 days after application). The following compounds at 200 ppm in the applied formulation give at least 80% disease control in this test when compared to untreated control leaf disks under the same conditions, which show extensive disease development.

Phakopsora pachyrhizi = assay: Fungicidal activity against Phakopsora pachyrhizi / soybean / leaf disc preventative (Asian soybean rust); type: in vivo; conditions: foliar, 200 ppm in the applied formulation, soybean leaf disks, vs untreated control, read-out: disease control
Method: Leaf disks or leaf segments of various plant species are cut from plants grown in a greenhouse. The cut leaf disks or segments are placed in multiwell plates (24-well format) onto water agar. The leaf disks are sprayed with a test solution before (preventative) or after (curative) inoculation. Compounds to be tested are prepared as DMSO solutions (max. 10 mg/ml) which are diluted to the appropriate concentration with 0.025% Tween20 just before spraying. The inoculated leaf disks or segments are incubated under defined conditions (temperature, relative humidity, light, etc.) according to the respective test system. A single evaluation of disease level is carried out 3 to 14 days after inoculation, depending on the pathosystem. Percent disease control relative to the untreated check leaf disks or segments is then calculated. Soybean leaf disks are placed on water agar in multiwell plates (24-well format) and sprayed with the formulated test compound diluted in water. One day after application leaf discs are inoculated by spraying a spore suspension on the lower leaf surface. After an incubation period in a climate cabinet of 24-36 hours in darkness at 20° C. and 75% rh leaf disc are kept at 20° C. with 12 hours light/12 hours and 75% rh. The activity of a compound is assessed as percent disease control compared to untreated when an appropriate level of disease damage appears in untreated check leaf disks (12 to 14 days after application). The following compounds at 200 ppm in the applied formulation give at least 80% disease control in this test when compared to untreated control leaf disks under the same conditions, which show extensive disease development.

[2] = system: Glomerella lagenarium (Colletotrichum lagenarium); assay: Fungicidal activity against Glomerella lagenarium (Colletotrichum lagenarium) liquid culture / cucumber / preventative (anthracnose); type: cell-based; conditions: Colletotrichum orbiculare, 72 h; 20 ppm in the applied formulation; liquid culture (PDB), growth inhibition measured photometrically 3 to 4 days after application; vs untreated control; read-out: disease control
Method: Mycelia fragments or conidia suspensions of a fungus prepared either freshly from liquid cultures of the fungus or from cryogenic storage, are directly mixed into nutrient broth. DMSO solutions of the test compound (max. 10 mg/ml) are diluted with 0.025% Tween20 by a factor of 50 and 10 μl of this solution is pipetted into a microtiter plate (96-well format). The nutrient broth containing the fungal spores/mycelia fragments is then added to give an end concentration of the tested compound. The test plates are incubated in the dark at 24° C. and 96% relative humidity. The inhibition of fungal growth is determined photometrically after 2 to 7 days, depending on the pathosystem, and percent antifungal activity relative to the untreated check is calculated.
Conidia of the fungus from cryogenic storage are directly mixed into nutrient broth (PDB—potato dextrose broth). After placing a (DMSO) solution of test compound into a microtiter plate (96-well format), the nutrient broth containing the fungal spores is added. The test plates are incubated at 24° C. and the inhibition of growth is measured photometrically 3 to 4 days after application.
The following compounds at 20 ppm in the applied formulation give at least 80% disease control in this test when compared to untreated control under the same conditions, which show extensive disease development.

O=C(NCC=NOCc1ccccc1F)c1ccc(-c2noc(C(F)(F)F)n2)cc1 [Compound 1.69, N-[2-[(2-fluorophenyl)methoxyimino]ethyl]-4-[5-(trifluoromethyl)-1,2,4-oxadiazol-3-yl]benzamide] was tested, and the pest or weed control at 200 ppm [1] was at least 80%, the pest or weed control at 200 ppm (Phakopsora pachyrhizi) was at least 80% and the inhibition of growth at 20 ppm [2] was at least 80%.

Molecule O=C(O)Cc1ccccc1CON=CCNC(=O)c1ccc(-c2noc(C(F)(F)F)n2)cc1 [Compound 1.92, 2-[2-[[2-[[4-[5-(trifluoromethyl)-1,2,4-oxadiazol-3-yl]benzoyl]amino]ethylideneamino]oxymethyl]phenyl] acetic acid] has a pest or weed control at 200 ppm [1] of at least 80%, a pest or weed control at 200 ppm (Phakopsora pachyrhizi) of at least 80% and an inhibition of growth at 20 ppm [2] of at least 80%.

With O=C(NCC=NOCc1ccc([N+](=O)[O-])cc1)c1ccc(-c2noc(C(F)(F)F)n2)cc1 [Compound 1.61, N-[2-[(4-nitrophenyl)methoxyimino]ethyl]-4-[5-(trifluoromethyl)-1,2,4-oxadiazol-3-yl]benzamide] the pest or weed control at 200 ppm [1] was at least 80% and the pest or weed control at 200 ppm (Phakopsora pachyrhizi) was at least 80%.

Molecule CC(CNC(=O)c1ccc(-c2noc(C(F)(F)F)n2)cc1)=NOCC(F)(F)F [Compound 1.139, N-[2-(2,2,2-trifluoroethoxy-imino)propyl]-4-[5-(trifluoromethyl)-1,2,4-oxadiazol-3-yl]benzamide] has a pest or weed control at 200 ppm [1] of at least 80%, a pest or weed control at 200 ppm (Phakopsora pachyrhizi) of at least 80% and an inhibition of growth at 20 ppm [2] of at least 80%.

With O=C(NCC=NOCc1ccccc1)c1ccc(-c2noc(C(F)(F)F)n2)cc1 [Compound 1.90, N-(2-benzyloxyimino-ethyl)-4-[5-(trifluoromethyl)-1,2,4-oxadiazol-3-yl]benzamide] the pest or weed control at 200 ppm [1] was at least 80%, the pest or weed control at 200 ppm (Phakopsora pachyrhizi) was at least 80% and the inhibition of growth at 20 ppm [2] was at least 80%.

Molecule COC(=O)Cc1ccccc1CON=CC(C)NC(=O)c1ccc(-c2noc(C(F)(F)F)n2)cc1 (centres unmarked) [Compound 1.49, methyl 2-[2-[[2-[[4-[5-(trifluoromethyl)-1,2,4-oxadiazol-3-yl]benzoyl]amino]propylideneamino]oxymethyl]phenyl]acetate] has a pest or weed control at 200 ppm [1] of at least 80% and an inhibition of growth at 20 ppm [2] of at least 80%.

With O=C(NCC=NOCc1ccc(F)cc1Cl)c1ccc(-c2noc(C(F)(F)F)n2)cc1 [Compound 1.71, N-[2-[(2-chloro-4-fluoro-phenyl)methoxy-imino]ethyl]-4-[5-(trifluoromethyl)-1,2,4-oxadiazol-3-yl]benzamide] the pest or weed control at 200 ppm [1] was at least 80%, the pest or weed control at 200 ppm (Phakopsora pachyrhizi) was at least 80% and the inhibition of growth at 20 ppm [2] was at least 80%.

CC(CNC(=O)c1ccc(-c2noc(C(F)(F)F)n2)cc1)=NOC(C)(C)C [Compound 1.132, N-(2-tert-butoxyiminopropyl)-4-[5-(trifluoromethyl)-1,2,4-oxadiazol-3-yl]benzamide] was tested, and the pest or weed control at 200 ppm [1] was at least 80%, the pest or weed control at 200 ppm (Phakopsora pachyrhizi) was at least 80% and the inhibition of growth at 20 ppm [2] was at least 80%.

With CC(C=NOC(C)(C)C)NC(=O)c1ccc(-c2noc(C(F)(F)F)n2)cc1 (centres unmarked) [Compound 1.45, N-(2-tert-butoxyimino-1-methyl-ethyl)-4-[5-(trifluoromethyl)-1,2,4-oxadiazol-3-yl]benzamide] the pest or weed control at 200 ppm [1] was at least 80%, the pest or weed control at 200 ppm (Phakopsora pachyrhizi) was at least 80% and the inhibition of growth at 20 ppm [2] was at least 80%.

Molecule CC(C=NOC1CCCCO1)NC(=O)c1ccc(-c2noc(C(F)(F)F)n2)cc1 (centres unmarked) [Compound 1.25, N-(1-methyl-2-tetrahydropyran-2-yloxyimino-ethyl)-4-[5-(trifluoromethyl)-1,2,4-oxadiazol-3-yl]benzamide] has a pest or weed control at 200 ppm [1] of at least 80%, a pest or weed control at 200 ppm (Phakopsora pachyrhizi) of at least 80% and an inhibition of growth at 20 ppm [2] of at least 80%.

O=C(NCC=NOCc1ccccc1Cl)c1ccc(-c2noc(C(F)(F)F)n2)cc1 [Compound 1.67, N-[2-[(2-chlorophenyl)methoxyimino]ethyl]-4-[5-(trifluoromethyl)-1,2,4-oxadiazol-3-yl]benzamide] showed a pest or weed control at 200 ppm [1] of at least 80%, a pest or weed control at 200 ppm (Phakopsora pachyrhizi) of at least 80% and an inhibition of growth at 20 ppm [2] of at least 80%.

In the case of CCCCON=CC(C)NC(=O)c1ccc(-c2noc(C(F)(F)F)n2)cc1 (centres unmarked) [Compound 1.40, N-(2-butoxyimino-1-methyl-ethyl)-4-[5-(trifluoromethyl)-1,2,4-oxadiazol-3-yl]benzamide], the pest or weed control at 200 ppm [1] was at least 80%, the pest or weed control at 200 ppm (Phakopsora pachyrhizi) was at least 80% and the inhibition of growth at 20 ppm [2] was at least 80%.

Work on O=C(O)CON=CCNC(=O)c1ccc(-c2noc(C(F)(F)F)n2)cc1 [Compound 1.65, 2-[2-[[4-[5-(trifluoromethyl)-1,2,4-oxadiazol-3-yl]benzoyl]amino]ethylideneamino] oxyacetic acid] yielded a pest or weed control at 200 ppm [1] of at least 80%, a pest or weed control at 200 ppm (Phakopsora pachyrhizi) of at least 80% and an inhibition of growth at 20 ppm [2] of at least 80%.

With C=C(Cl)CON=C(C)CNC(=O)c1ccc(-c2noc(C(F)(F)F)n2)cc1 [Compound 1.144, N-[2-(2-chloroallyloxy-imino)propyl]-4-[5-(trifluoromethyl)-1,2,4-oxadiazol-3-yl]benzamide] the pest or weed control at 200 ppm [1] was at least 80%, the pest or weed control at 200 ppm (Phakopsora pachyrhizi) was at least 80% and the inhibition of growth at 20 ppm [2] was at least 80%.

CC(CNC(=O)c1ccc(-c2noc(C(F)(F)F)n2)cc1)=NOCc1ccccc1CC(=O)O [Compound 1.136, 2-[2-[[[1-methyl-2-[[4-[5-(trifluoromethyl)-1,2,4-oxadiazol-3-yl]benzoyl]amino]ethylidene]amino]oxymethyl]phenyl]acetic acid] showed a pest or weed control at 200 ppm [1] of at least 80% and an inhibition of growth at 20 ppm [2] of at least 80%.

CC(C)=CCON=C(C)CNC(=O)c1ccc(-c2noc(C(F)(F)F)n2)cc1 [Compound 1.123, N-[2-(3-methylbut-2-enoxyimino)propyl]-4-[5-(trifluoromethyl)-1,2,4-oxadiazol-3-yl]benzamide] gave a pest or weed control at 200 ppm [1] of at least 80%, a pest or weed control at 200 ppm (Phakopsora pachyrhizi) of at least 80% and an inhibition of growth at 20 ppm [2] of at least 80%.

Molecule COc1ccc(CON=CCNC(=O)c2ccc(-c3noc(C(F)(F)F)n3)cc2)cc1 [Compound 1.64, N-[2-[(4-methoxyphenyl)methoxyimino]ethyl]-4-[5-(trifluoromethyl)-1,2,4-oxadiazol-3-yl]benzamide] has a pest or weed control at 200 ppm [1] of at least 80%, a pest or weed control at 200 ppm (Phakopsora pachyrhizi) of at least 80% and an inhibition of growth at 20 ppm [2] of at least 80%.

CC(C=NOC(C)C)NC(=O)c1ccc(-c2noc(C(F)(F)F)n2)cc1 (centres unmarked) [Compound 1.50, N-(2-isopropoxyimino-1-methyl-ethyl)-4-[5-(trifluoromethyl)-1,2,4-oxadiazol-3-yl]benzamide] was tested, and the pest or weed control at 200 ppm [1] was at least 80%, the pest or weed control at 200 ppm (Phakopsora pachyrhizi) was at least 80% and the inhibition of growth at 20 ppm [2] was at least 80%.

C=C(Cl)CON=CC(C)NC(=O)c1ccc(-c2noc(C(F)(F)F)n2)cc1 (centres unmarked) [Compound 1.56, N-[2-(2-chloroallyloxy-imino)-1-methyl-ethyl]-4-[5-(trifluoromethyl)-1,2,4-oxadiazol-3-yl]benzamide] was tested, and the pest or weed control at 200 ppm [1] was at least 80%, the pest or weed control at 200 ppm (Phakopsora pachyrhizi) was at least 80% and the inhibition of growth at 20 ppm [2] was at least 80%.

With COc1cccc(CON=C(C)CNC(=O)c2ccc(-c3noc(C(F)(F)F)n3)cc2)c1 [Compound 1.106, N-[2-[(3-methoxyphenyl)methoxyimino]propyl]-4-[5-(trifluoromethyl)-1,2,4-oxadiazol-3-yl]benzamide] the pest or weed control at 200 ppm [1] was at least 80% and the inhibition of growth at 20 ppm [2] was at least 80%.
